Source: PMC9673804, “Design, synthesis and antitumor evaluation of novel pyrazolo[3,4-d]pyrimidines incorporating different amino acid conjugates as potential DHFR inhibitors” (Journal of Enzyme Inhibition and Medicinal Chemistry, 2022)
Where “and” joins values, the source holds several entries; their conditions need not be identical. Identical values can stand only once.

Experiments:
[1] = tested on: pancreatic human cancer cell lines (BxPC-3); assay: SRB cytotoxicity assay, BxPC-3; type: cell-based; conditions: BxPC-3 cells
Protocol: (§1) The SRB colorimetric assay was employed to assess the synthesized compounds’ cytotoxic effects on several cancer cell lines (Table 1)[11–14]. […] Furthermore, the effect of tested compounds was evaluated on the normal immortalized HPDE cell line.
(§2) Sulforhodamine B (SRB) assay was employed to assay in-vitro antitumor activities of all the synthesised compounds as describer previously. […] The cell lines were obtained from the American Type Culture Collection (Rockville, USA).

[2] = tested on: human prostate cancer (PC-3); assay: SRB cytotoxicity assay, PC-3; type: cell-based; conditions: PC-3 cells
Protocol: as §1, §2

[3] = tested on: human hepatocellular carcinoma (HepG-2); assay: SRB cytotoxicity assay, HepG-2; type: cell-based; conditions: HepG2, HepG-2 cells
Protocol: as §1, §2

[4] = tested on: mammary gland breast cancer (MCF-7); assay: SRB cytotoxicity assay, MCF-7; type: cell-based; conditions: Homo sapiens, MCF7, MCF-7 cells
Protocol: as §1, §2

human DHFR enzyme = target: T1, human DHFR enzyme (Homo sapiens, UniProt P00374); assay: Elisa assay of human DHFR enzyme; type: biochemical; conditions: for IC50: DHFR ELISA kit, triplicate; for inhibition at 0.1 µM: conc 0.1 uM; for inhibition at 1 µM: conc 1 uM; for inhibition at 10 µM: conc 10 uM; for inhibition at 100 µM: conc 100 uM
T1 construct: purchased MyBioSource MBS9312476
T1 sequence (P00374 1-187): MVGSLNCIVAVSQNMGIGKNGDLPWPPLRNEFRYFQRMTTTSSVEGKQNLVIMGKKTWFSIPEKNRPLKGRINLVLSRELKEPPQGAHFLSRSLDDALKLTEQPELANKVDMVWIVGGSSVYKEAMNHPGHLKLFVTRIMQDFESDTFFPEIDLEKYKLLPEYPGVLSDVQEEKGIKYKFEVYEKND
Protocol: Enzyme-linked immunosorbent assay (ELISA) assay technique was used to evaluate the anti-DHFR effects of all the synthesised compounds on as described previously. The DHFR ELISA kit (MyBioSource, MBS9312476 San Diego, CA, USA) was used according to the manufacturer instructions. […] The test was repeated in triplicate, and the significance was assessed by one-way ANOVA test followed by Tukey’s posttest, where p < 0.05 was considered significance.

[5] = tested on: cervical carcinoma (HeLa); assay: SRB cytotoxicity assay, HeLa; type: cell-based; conditions: Homo sapiens, HeLa cells
[6] = tested on: colorectal carcinoma (HCT-116); assay: SRB cytotoxicity assay, HCT-116; type: cell-based; conditions: Homo sapiens, HCT-116 cells
Protocol: as §1, §2

[7] = tested on: normal immortalised pancreatic cell line (HPDE); assay: SRB cytotoxicity assay, normal HPDE cells; type: cell-based; conditions: normal immortalized HPDE cell line
Protocol: as §1, §2

Row | Structure (SMILES) | IC50 [1] [µM] | IC50 [2] [µM] | IC50 [3] [µM] | IC50 [4] [µM] | IC50 (human DHFR enzyme) | inhibition at 0.1 µM (human DHFR enzyme) [%] | inhibition at 1 µM (human DHFR enzyme) [%] | inhibition at 10 µM (human DHFR enzyme) [%] | inhibition at 100 µM (human DHFR enzyme) [%] | IC50 [5] [µM] | IC50 [6] [µM] | IC50 [7] [µM]
1 | O=C(c1ccc(Nc2ncnc3c2cnn3-c2ccccc2)cc1)n1nnc2ccccc21 [Compound 6, {1H-benzo[d][1,2,3]triazol-1-yl}{4-[(1-phenyl-1H-pyrazolo-[3,4-d]pyrimidin-4-yl)-amino]phenyl}-methanone] | 14.2 ± 1.36 | 14.9 ± 1.24 | 13 ± 1.86 | 11.9 ± 1.1 | 7.99 ± 0.16 µM | 17 | 29 | 61 | 89 | 15.1 ± 1.21 | 17.3 ± 2.18 | > 50
2 | O=C(O)CNC(=O)c1ccc(Nc2ncnc3c2cnn3-c2ccccc2)cc1 [Compound 7a, 2-{4-[(1-Phenyl-1H-pyrazolo[3,4-d]pyrimidin-4-yl)amino]benzamido}acetic acid] | 19.4 ± 1.56 | 23 ± 1.03 | 15.5 ± 0.96 | 15.3 ± 1.29 | 13.3 ± 0.24 µM | 12 | 30 | 57 | 81 | 19.4 ± 1.21 | 28.2 ± 1.93 | > 50
3 | CC(NC(=O)c1ccc(Nc2ncnc3c2cnn3-c2ccccc2)cc1)C(=O)O (stereo not drawn) [Compound 7b, 2-{4-[(1-Phenyl-1H-pyrazolo[3,4-d]pyrimidin-4-yl)amino]benzamido}propanoic acid] | 31.2 ± 2.8 | 34.2 ± 2.61 | 19.2 ± 1.87 | 35.7 ± 2.09 | 42.5 ± 0.78 µM | 6.4 | 20 | 38 | 72 | 29.2 ± 1.9 | 29.6 ± 1.91 | > 50
4 | CC(C)C(NC(=O)c1ccc(Nc2ncnc3c2cnn3-c2ccccc2)cc1)C(=O)O (stereo not drawn) [Compound 7c, 3-Methyl-2-{4-[(1-phenyl-1H-pyrazolo[3,4-d]pyrimidin-4-yl)amino]benzamido}butanoic acid] | 10.2 ± 1.01 | 11.2 ± 0.34 | 12.2 ± 1.14 | 6.56 ± 0.18 | < 1 µM and ~0.61 µM and 0.61 µM | 39 | 65 | 80 | 94 | 9.39 ± 0.25 | 10.6 ± 1.1 | > 50
5 | CCC(C)C(NC(=O)c1ccc(Nc2ncnc3c2cnn3-c2ccccc2)cc1)C(=O)O (stereo not drawn) [Compound 7d, 3-Methyl-2-{4-[(1-phenyl-1H-pyrazolo[3,4-d]pyrimidin-4-yl)amino]benzamido}pentanoic acid] | 11.2 ± 0.41 | 9.99 ± 0.81 | 9.09 ± 0.71 | 5.51 ± 0.28 | < 1 µM and 0.43 µM | 42 | 66 | 85 | 95 | 8.09 ± 0.51 | 10.1 ± 1.01 | > 50
6 | O=C(O)CCC(NC(=O)c1ccc(Nc2ncnc3c2cnn3-c2ccccc2)cc1)C(=O)O (stereo not drawn) [Compound 7e, 2-{4-[(1-Phenyl-1H-pyrazolo[3,4-d]pyrimidin-4-yl)amino]benzamido}pentanedioic acid] | 15.2 ± 1.15 | 13.8 ± 1.14 | 16 ± 0.8 | 11.9 ± 1.1 | 1.83 ± 0.04 µM | 28 | 57 | 72 | 89 | 13.1 ± 1.01 | 15.3 ± 1.18 | > 50
7 | O=C(NC(CS)C(=O)O)c1ccc(Nc2ncnc3c2cnn3-c2ccccc2)cc1 (stereo not drawn) [Compound 7g, 3-Mercapto-2-{4-[(1-phenyl-1H-pyrazolo[3,4-d]pyrimidin-4-yl)amino]benzamido}propanoic acid] | 15.2 ± 0.22 | 13.2 ± 1.52 | 10.2 ± 0.92 | 10.8 ± 1.1 | 1.28 ± 0.03 µM | 37 | 55 | 70 | 84 | 12.3 ± 1.2 | 12.2 ± 1.2 | > 50
8 | CSCCC(NC(=O)c1ccc(Nc2ncnc3c2cnn3-c2ccccc2)cc1)C(=O)O (stereo not drawn) [Compound 7h, 4-(Methylthio)-2-{4-[(1-phenyl-1H-pyrazolo[3,4-d]pyrimidin-4-yl)amino]benzamido}butanoic acid] | 17.9 ± 1.03 | 17 ± 2.02 | 17 ± 0.92 | 20 ± 2.01 | 8.47 ± 0.18 µM | 21 | 36 | 54 | 81 | 18 ± 1.2 | 19.3 ± 0.85 | > 50
9 | O=C(NC(Cc1c[nH]cn1)C(=O)O)c1ccc(Nc2ncnc3c2cnn3-c2ccccc2)cc1 (stereo not drawn) [Compound 7i, 3-(1h-Imidazol-4-yl)-2-{4-[(1-phenyl-1H-pyrazolo[3,4-d]pyrimidin-4-yl)amino]benzamido}-propanoic acid] | 10.5 ± 3.01 | 12.8 ± 2.01 | 9.26 ± 1.56 | 13.2 ± 1.21 | < 1 µM and 0.82 µM | 35 | 63 | 80 | 94 | 10.9 ± 1.99 | 13 ± 1.01 | > 50
10 | O=C(O)C1CCCN1C(=O)c1ccc(Nc2ncnc3c2cnn3-c2ccccc2)cc1 (stereo not drawn) [Compound 7j, 1-{4-[(1-Phenyl-1H-pyrazolo[3,4-d]pyrimidin-4-yl)amino]benzoyl}pyrrolidine-2-carboxylic acid] | 6.19 ± 0.43 | 11.2 ± 0.7 | 10.3 ± 1.2 | 8.19 ± 1.2 | < 1 µM and 0.54 µM | 41 | 64 | 80 | 93 | 9.29 ± 0.2 | 8.1 ± 0.2 | > 50
11 | O=C(NC(Cc1c[nH]c2ccccc12)C(=O)O)c1ccc(Nc2ncnc3c2cnn3-c2ccccc2)cc1 (stereo not drawn) [Compound 7k, 3-(1h-Indol-3-yl)-2-{4-[(1-phenyl-1H-pyrazolo[3,4-d]pyrimidin-4-yl)amino]benzamido}propanoic acid] | 19.1 ± 1.23 | 19.9 ± 1.35 | 25.54 ± 0.14 | 28.9 ± 1.91 | 7 ± 0.17 µM | 21 | 37 | 60 | 77 | 19.5 ± 1.1 | 18 ± 1.23 | > 50
12 | O=C(NC(Cc1ccccc1)C(=O)O)c1ccc(Nc2ncnc3c2cnn3-c2ccccc2)cc1 (stereo not drawn) [Compound 7l, 3-Phenyl-2-{4-[(1-phenyl-1H-pyrazolo[3,4-d]pyrimidin-4-yl)amino]benzamido}propanoic acid] | 11.5 ± 0.76 | 10.1 ± 0.9 | 13.2 ± 1.29 | 10.7 ± 1.09 | < 1 µM and ~0.66 µM and 0.66 µM | 34 | 68 | 81 | 92 | 9.05 ± 1.2 | 13 ± 0.89 | > 50
13 | O=C(NC(Cc1ccc(O)cc1)C(=O)O)c1ccc(Nc2ncnc3c2cnn3-c2ccccc2)cc1 (stereo not drawn) [Compound 7m, 3-(4-Hydroxyphenyl)-2-{4-[(1-phenyl-1H-pyrazolo[3,4-d]pyrimidin-4-yl)amino]benzamido}-propanoic acid] | 12 ± 1.14 | 12.7 ± 1.87 | 14.2 ± 0.98 | 11.3 ± 1.28 | 1.34 ± 0.03 µM | 36 | 52 | 73 | 86 | 11.8 ± 1.13 | 13.3 ± 2.21 | > 50
14 | COc1cccc2c1C(=O)c1c(O)c3c(c(O)c1C2=O)C[C@@](O)(C(=O)CO)C[C@@H]3O[C@H]1C[C@H](N)[C@H](O)[C@H](C)O1 [Doxorubicin, reference compound] | 7.23 ± 0.1 | 9.01 ± 0.09 | 4.6 ± 0.44 | 4.25 ± 0.15 | – | – | – | – | – | – | – | > 50
15 | CN(Cc1cnc2nc(N)nc(N)c2n1)c1ccc(C(=O)N[C@@H](CCC(=O)O)C(=O)O)cc1 [Methotrexate, methotrexate, reference compound] | 29.1 ± 0.31 | 42.3 ± 7.25 | 800.24 ± 0.16 | 66.11 ± 0.15 | – | – | – | – | – | 294.8 ± 0.51 | 99.98 ± 0.22 | > 50
